In patent US20250108036A1, “COMPOSITIONS FOR REMOVING SENESCENT CELLS AND USES THEREOF” (LIFECEUTIX CO., LTD., priority 2021, published 2025):

Columns and labels:
[1] = test system: p16, MMP3, IL6; test: p16, MMP3, IL6 mRNA qRT-PCR in groin fat of obese mice given senescent cells killed by test compounds (Example 16, Table 72); type: in vivo, C57BL6J mice; conditions: obese mice administered senescent cells whose death was induced by the test compound
Source text: To obtain preadipocytes, groin fat tissue was collected from an 8-week-old female C57BL6J mouse (purchased from KRIBB Laboratory Animal Resource Center). The fat tissue was cut into small pieces and treated with collagenase to decompose the fat tissue, then centrifuged to collect the stromal vascular fraction (SVF) containing preadipocytes. It was washed with a washing medium (HBSS, purchased from GenDEPOT; 3.5% Albumin Fraction V, purchased from GenDEPOT; 100 U/ml Penicillin & Streptomycin, purchased from Invitrogen), mixed again, and extracted by filtering through a 100 μm nylon mesh. The isolated preadipocytes were cultured in the designated medium (DMEM, purchased from GenDEPOT; 20% FBS, purchased from GenDEPOT; 100 U/ml Penicillin & Streptomycin, purchased from Invitrogen). In the same manner as Example 1, cells were treated with doxorubicin at a concentration of 250 nM for 24 hours and cultured for an additional 21 days to induce cell senescence. Cells were treated with doxorubicin at a concentration of 250 nM for 24 hours and cultured for an additional 21 days to induce cell senescence. By treating the test compounds in the same manner as in Example 13, it was confirmed using an optical microscope that the death of most senescent cells was induced. The killed preadipocytes were washed using PBS (purchased from Welgene) and then mixed with PBS at a concentration of 5×10^5 cells/200 μl. It was administered subcutaneously to 8-week-old female C57BL6J mice (purchased from KRIBB Laboratory Animal Resource Center). At 7 and 10 days after administration of the killed senescent cells, 2 million senescent preadipocytes were mixed in 200 μl of PBS and administered into the abdominal cavity of mice. After administration of killed senescent cells, obesity was induced in mice with a high-fat diet (DIO) for 8 weeks in the same manner as in Example 9-1. Afterwards, the mouse was sacrificed in the same manner as in Example 7-2, total RNA was extracted from the groin fat tissue, and qRT-PCR was performed and analyzed using the synthesized cDNA. […] The mRNA amount of p16, MMP3, and IL6 without administration of senescent cells whose death was induced by the test compounds was calculated as 100%, and the amount of p16, MMP3, and IL6 after administration of the senescent cells whose death was induced by the test compounds was compared with them. Furthermore, an open field test was performed to analyze aging-related frailty in mice using the same method as Example 7-7. […] The amount of activity evaluation without administration of senescent cells whose death was induced by the test compounds was calculated as 100% and compared it with the amount of activity evaluation after administration of senescent cells whose death was induced by the test compounds. […]

[2] = test system: p16, MMP3, IL6; test: p16, MMP3, IL6 mRNA qRT-PCR in liver of naturally aged mice treated with test compounds (Example 15, Table 71); type: in vivo, C57BL6J mice; conditions: liver tissue of naturally aged mice treated with test compound
[3] = open field test in naturally aged mice treated with test compounds (Example 15, Table 71); type: in vivo, C57BL6J mice; conditions: naturally aged mice treated with test compound
[4] = test system: A549; test: CellTiter-Glo cell viability of senescent A549 cancer cells (Example 12, Table 67); type: cell-based, human; conditions: doxorubicin-induced senescent A549 cancer cells, CellTiter-Glo
[5] = test system: senescent foreskin cells; test: survival of senescent foreskin cells treated with medium supernatant (secreted fluid) of compound-killed cells (Example 13, Tables 68, 69); type: cell-based, human; conditions: culture medium supernatant from dying senescent cells treated with compound at 30 μM, 90 μM or 270 μM; senescent foreskin cells
[6] = test system: HMGN1; test: HMGN1 ELISA in culture medium of foreskin cells (Examples 10, 11; Tables 62, 63, 64); type: cell-based, human; conditions: 30 μM test compound, doxorubicin-treated foreskin cells, DMSO = 100
[7] = test system: foreskin cells in which senescence was induced by doxorubicin; test: CellTiter-Glo cell viability of doxorubicin-induced senescent foreskin cells (Examples 1-2, 10, 11, 13; Tables 4, 63, 65); type: cell-based, human; conditions: doxorubicin-induced senescent foreskin cells, CellTiter-Glo, 0 μM = 100
Description: After 3 days, cell viability was measured using CellTiter-Glo Luminescent Cell Viability Assay (Promega) or light microscopy.

[8] = test system: HMGN1; test: HMGN1 ELISA in culture medium of A549 cancer cells (Example 12, Table 66); type: cell-based, human; conditions: doxorubicin-induced senescent A549 cells, test compound 30 μM, ELISA, DMSO = 100
[9] = open field test in obese mice given senescent cells killed by test compounds (Example 16, Table 72); type: in vivo, C57BL6J mice; conditions: obese mice administered senescent cells whose death was induced by the test compound
Source text: To obtain preadipocytes, groin fat tissue was collected from an 8-week-old female C57BL6J mouse (purchased from KRIBB Laboratory Animal Resource Center). The fat tissue was cut into small pieces and treated with collagenase to decompose the fat tissue, then centrifuged to collect the stromal vascular fraction (SVF) containing preadipocytes. It was washed with a washing medium (HBSS, purchased from GenDEPOT; 3.5% Albumin Fraction V, purchased from GenDEPOT; 100 U/ml Penicillin & Streptomycin, purchased from Invitrogen), mixed again, and extracted by filtering through a 100 μm nylon mesh. The isolated preadipocytes were cultured in the designated medium (DMEM, purchased from GenDEPOT; 20% FBS, purchased from GenDEPOT; 100 U/ml Penicillin & Streptomycin, purchased from Invitrogen). In the same manner as Example 1, cells were treated with doxorubicin at a concentration of 250 nM for 24 hours and cultured for an additional 21 days to induce cell senescence. Cells were treated with doxorubicin at a concentration of 250 nM for 24 hours and cultured for an additional 21 days to induce cell senescence. By treating the test compounds in the same manner as in Example 13, it was confirmed using an optical microscope that the death of most senescent cells was induced. The killed preadipocytes were washed using PBS (purchased from Welgene) and then mixed with PBS at a concentration of 5×10^5 cells/200 μl. It was administered subcutaneously to 8-week-old female C57BL6J mice (purchased from KRIBB Laboratory Animal Resource Center). At 7 and 10 days after administration of the killed senescent cells, 2 million senescent preadipocytes were mixed in 200 μl of PBS and administered into the abdominal cavity of mice. After administration of killed senescent cells, obesity was induced in mice with a high-fat diet (DIO) for 8 weeks in the same manner as in Example 9-1. Afterwards, the mouse was sacrificed in the same manner as in Example 7-2, total RNA was extracted from the groin fat tissue, and qRT-PCR was performed and analyzed using the synthesized cDNA. […] The mRNA amount of p16, MMP3, and IL6 without administration of senescent cells whose death was induced by the test compounds was calculated as 100%, and the amount of p16, MMP3, and IL6 after administration of the senescent cells whose death was induced by the test compounds was compared with them. Furthermore, an open field test was performed to analyze aging-related frailty in mice using the same method as Example 7-7. […] The amount of activity evaluation without administration of senescent cells whose death was induced by the test compounds was calculated as 100% and compared it with the amount of activity evaluation after administration of senescent cells whose death was induced by the test compounds.

[10] = chlorhexidine gluconate-induced peritoneal fibrosis in mice (Example 6-2); type: in vivo, C57BL6J mice; conditions: 0.1% CHG 10 ml/kg i.p. every 2 days for 20 days; LX-112 70 mg/kg i.p. daily from day 9
Description: After 8-week-old male C57BL6J mice (purchased from KRIBB Laboratory Animal Resource Center) were adapted to the experimental environment for 1 week, the mice were randomized into an experimental group and a control group. To induce peritoneal fibrosis, 0.1% chlorhexidine gluconate (CHG, purchased from Sigma) was dissolved in 15% ethanol phosphate buffer solution and administered intraperitoneally at a concentration of 10 ml/kg every 2 days for 20 days. From day 9, LX-112 was mixed with 0.5% CMC-Na solution (purchased from Sigma) and administered intraperitoneally at a concentration of 70 mg/kg every day. The control group (−) was administered only the solution in the same volume. On the 20th day, paraffin sections of peritoneal tissue prepared by fixation in 4% paraformaldehyde solution were stained with H/E (Hematoxylin/Eosin) and trichrome, and the thickness of the peritoneal mesothelial cell layer was measured under a light microscope.

[11] = test system: Splenocyte; conditions: cited from earlier work

Compound: CC(=O)OC[C@H]1O[C@@H]([S-])[C@H](OC(C)=O)[C@@H](OC(C)=O)[C@@H]1OC(C)=O.CCP(CC)CC.[Au+] [LX-201, Auranofin, reference compound]
- IL6 mRNA (%) [1]: 76.8 (±6.4) %
- MMP3 mRNA (%) [1]: 67.1 (±9.2) %
- p16 mRNA (%) [1]: 79.5 (±7.6) %
- IL6 mRNA (%) [2]: 65.7 (±5.1) %
- MMP3 mRNA (%) [2]: 77 (±9.6) %
- p16 mRNA (%) [2]: 85 (±8.2) %
- Open Field Test Time in Center (%) [3]: 226.4 (±27.6) %
- Survival (%) ([4]; 1.1 μM test compound): 72.5%
- Survival [5]: 62.9
- HMGN1 [6]: 291
- Survival (%) ([7]; 1.1 μM test compound): 98.2%
- Survival (%) ([7]; […] test compound): 3%
- HMGN1 (amount of HMGN1 secreted in the cell culture) [8]: 337
- Open Field Test Time in Center (%) [9]: 176 (±22.6) %

Compound: N=C(NCCCCCCNC(=N)NC(=N)Nc1ccc(Cl)cc1)NC(=N)Nc1ccc(Cl)cc1.O=C(O)[C@H](O)[C@@H](O)[C@H](O)[C@H](O)CO.O=C(O)[C@H](O)[C@@H](O)[C@H](O)[C@H](O)CO [CHG, chlorhexidine gluconate, reference compound]
- Submesothelial Thickness (μm) [10]: 69.1 (±6.4) μm

Compound: Decyltriphenylphosphonium [LX-1202]
- IL6 mRNA (%) [1]: 62.8 (±8.9) %
- MMP3 mRNA (%) [1]: 70.7 (±7.5) %
- p16 mRNA (%) [1]: 67.2 (±12.1) %
- IL6 mRNA (%) [2]: 74.1 (±6.1) %
- MMP3 mRNA (%) [2]: 40.2 (±22.7) %
- p16 mRNA (%) [2]: 74.2 (±10.4) %
- Open Field Test Time in Center (%) [3]: 231 (±23) %
- Survival (%) ([4]; 1.1 μM test compound): 53.4%
- Survival [5]: 55.1
- HMGN1 [6]: 289
- Survival (%) ([7]; 1.1 μM test compound): 22.7%
- Survival (%) ([7]; […] test compound): 3.1%
- HMGN1 (amount of HMGN1 secreted in the cell culture) [8]: 301
- Open Field Test Time in Center (%) [9]: 175.9 (±21.5) %

Compound: S=C(N/N=C1\CCCc2cccnc21)N1CCN(c2ccccn2)CC1 [LX-801]
- IL6 mRNA (%) [1]: 79.4 (±4.6) %
- MMP3 mRNA (%) [1]: 81.7 (±2.9) %
- p16 mRNA (%) [1]: 79.8 (±3.4) %
- IL6 mRNA (%) [2]: 71.1 (±1.8) %
- MMP3 mRNA (%) [2]: 76.5 (±4.2) %
- p16 mRNA (%) [2]: 69.4 (±6.9) %
- Open Field Test Time in Center (%) [3]: 241.8 (±17.9) %
- Survival (%) ([4]; 1.1 μM test compound): 78.1%
- Survival (%) ([4]; 10 μM test compound): 12.7%
- Survival [5]: 52.7
- HMGN1 [6]: 265
- Survival (%) ([7]; 1.1 μM test compound): 50.5%
- Survival (%) ([7]; 10 μM test compound): 28.2%
- Survival (%) ([7]; […] test compound): 48.9%
- HMGN1 (amount of HMGN1 secreted in the cell culture) [8]: 329
- Open Field Test Time in Center (%) [9]: 216.8 (±12.8) %

Compound: CC(O)[C@@H]1NC(=O)COCCOCCNC(=O)[C@H](C(C)O)NC(=O)N[C@@H](C(C)O)C(=O)NNC1=O (stereo partly shown) [Example 80]
- Splenocyte proliferation recovery [11]: Splenocyte proliferation recovery 91%
